Results from patent publication US9056067B2, “Pharmaceutical composition for enhancing immunity, and extract of Poria” (Sinphar Pharmaceutical Co., Ltd., priority 2003, dated 2015).
Several values for one entry are separate records, joined by “and”; a condition that tells them apart may be missing. Equal entries are not always repeated.

How the values were obtained:
Format in all cases: in vivo, mice
[1] = test system: IgG; experiment: Serum level of IgG (ELISA)
Procedure: (§1) […] […] The control group was the mice feeding with an equal volume of saline (0.85% of NaCl). Mice were sacrificed at day five, and both the serum and spleen cells were collected. The sera were subsequently used to measure the concentration of IgG, IgM and IgA. The spleen cells were plated onto a 100 mm diameter culture plate and incubated at 37° C. for three hours. The non-adherent cells containing T-lymphocytes, B-lymphocytes and NK cells were collected and properly diluted as described in each assay.
(§2) The mouse to be sacrificed was cervical dislocated and sterilized with 70% ethanol. The cardiac punctuation was performed first to withdraw the blood. After the haemagglutination, the blood sample was subjected to centrifugation and the serum was collect. For isolation of spleen cells, the peritoneum was opened to remove the spleen. The fresh spleen was transferred to a culture plate containing 10 ml of RPMI-1640 culture medium. The spleen was then ground over a fine mesh to release the spleen cells. The spleen cells suspending in the medium were then removed and transferred to a 50-ml conical centrifuge tube. The tube was subjected to centrifugation at 1300 rpm for 10 min. The supernatant was discarded and the pellet was re-suspended in 1 ml of cold RBC lysing buffer containing EDTA-NH4Cl. The cells were incubated at room temperature for 10 min, followed by washing the cells three times with culture medium by centrifugation. The spleen cells were plated onto a 100 mm diameter culture plate and incubated at 37° C. for three hours. The non-adherent cells containing T-lymphocytes, B-lymphocytes and NK cells were collected and properly diluted as described in each assay.
(§3) An ELISA was performed in our study to measure the immunoglobulin concentration. Briefly, the spleen cells (5×10^5 cells/ml) were cultured in a medium containing RPMI 1640 supplemented with 10% fetal bovine serum (FBS), 2 mM L-glutamine, antibiotics and 5 μg/ml lipopolysaccharide (LPS; 1 μg/10^5 cells) for 5 days. LPS is a polyclonal activator of B lymphocyte. Culture spleen cell supernatants were collected at day 3, 4 and 5. IgA, IgG and IgM concentrations were measured using a sandwich ELISA technique.
(§4) A 96-well microtiter plate (Nunc-Immuno Plate, MaxiSorp, Nunc, Denmark) was precoated with 100 ng/well of capture antibodies at 4° C. overnight. The capture antibody was a rabbit anti-mouse IgG+IgA+IgM antibody (Zymed Laboratory, CA). The plate was washed with PBS-0.05% Tween 20 solution and blocked with PBS-1% gelatin. After the blocking, the properly diluted samples (1/10^5 diluted) and standard IgG ranged from 0.25 μg/ml to 0.039 μg/ml were added (100 μl/well). The plate was then incubated at 37° C. for 2 h. At the end of incubation, HRP-conjugated goat anti-mouse IgG (1:2,000 diluted; anti-whole IgG molecule; Zymed Laboratory, CA) was added (100 μl/well). After 1 h of incubation at 37° C., the color was developed using a substrate solution containing 0.1 M citrate buffer, pH 4.5, 0.03% H2O2 and 0.1% of o-phenylenediamine. The absorbence at 490 nm in each well was read using an ELISA reader (EL311, BioTek, VT), and the data was analyzed using log-logit model.

[2] = test system: IgG; experiment: IgG secretion by spleen cells in vitro (LPS, ELISA) after oral administration
Procedure: as §1, §2, §3, §4

[3] = test system: IFN-γ; experiment: IFN-γ secretion by Con A-stimulated spleen cells (ELISA) after oral administration; settings: for Dose with significantly augmented IFNγ secretion by ConA-stimulated splenic T cells: oral; for IFN-γ secretion by spleen cell: Con A
Procedure: For the drug treatment, the animals were divided into four groups and oral administration with 1 ml of PCM, ranging from 10, 40 to 80 mg/kg/day, for four days. […] The control group was the mice feeding with an equal volume of saline (0.85% of NaCl). Mice were sacrificed at day five, and both the serum and spleen cells were collected. The sera were subsequently used to measure the concentration of IgG, IgM and IgA. The spleen cells were plated onto a 100 mm diameter culture plate and incubated at 37° C. for three hours. The non-adherent cells containing T-lymphocytes, B-lymphocytes and NK cells were collected and properly diluted as described in each assay.
as §2
For the quantitative analysis of IFN-γ and IL-10, the spleen cells (1×10^6 cells/ml) were cultured in a medium containing RPMI 1640 supplemented with 10% fetal bovine serum (FBS), 2 mM L-glutamine, antibiotics and 1 μg/ml concanavalin A (Con A) for 3 days. Con A is one of the polyclonal activators for T lymphocyte. Culture spleen cell supernatants were collected. The IFNγ and IL-10 concentrations were measured using a cytokine ELISA set (Cyto Set ELISA kit) purchased from R&D Systems (MN, USA).
Cyto Set ELISA was performed as follows: A 96-well microtiter plate (Nunc-Immuno Plate, MaxiSorp, Nunc, Denmark) was precoated with capture antibodies at 4° C. overnight. The capture antibody was a rat monoclonal antibody to mouse IL-10. The samples to be tested and standard IL-10 ranged from 500 pg/ml to 15.6 pg/ml were added (100 μl/well). The plate was then incubated at 37° C. for 20 min. At the end of incubation, the plate was washed five times, followed by adding the biotinylated goat anti IL-10 polyclonal antibody. The color was developed by incubating the plate with a HRP-conjugated streptoavidin (Zymed, CA, USA), followed by a substrate solution containing hydrogen peroxide and tetramethylbenzidine (TMB). The reaction continued for 30 min at room temperature, and was stopped by adding 100 μl of 2N of sulfuric acid. The absorbence at 450 nm in each well was read using an ELISA reader (EL311, BioTek, Winooski, Vt.), and the data was analyzed using log-logit model.
Cyto Set ELISA of IFN-γ was similar to that of IL-10, except that the capture antibody was a rat monoclonal antibody to mouse IFN-γ, and secondary antibody was biotinylated goat anti IFN-γ polyclonal antibody.
TH1-type cytokines, such as interleukin-2 (IL-2), interferon-γ (IFN-γ) induces the cellular immune response. Whereas, TH2-type cytokines, such as interleukin-4 (IL-4), interleukin-5 (IL-5), interleukin-6 (IL-6), stimulates the B lymphocyte-mediated humoral immune response. […] Spleen cells isolated from the mice treated with PCM and its purified components, such as PCM-K1, -K2, -K3 and K4, were cultured for five days in the presence of ConA. […]

[4] = oral 10 mg/kg/day for four days
[5] = oral 20 mg/kg/day for four days

Structure (SMILES)	Serum immunoglobulin concentration IgG ([1]; oral 5 mg/kg/day for four days)	Serum immunoglobulin concentration IgG [1, 4]	Serum immunoglobulin concentration IgG [1, 5]	IgG secretion by spleen cell, incubation day 3 ([2]; oral 5 mg/kg/day for four days)	IgG secretion by spleen cell, incubation day 4 ([2]; oral 5 mg/kg/day for four days)	IgG secretion by spleen cell, incubation day 5 ([2]; oral 5 mg/kg/day for four days)	IgG secretion by spleen cell, incubation day 3 [2, 4]	IgG secretion by spleen cell, incubation day 4 [2, 4]	IgG secretion by spleen cell, incubation day 5 [2, 4]	IgG secretion by spleen cell, incubation day 3 [2, 5]	IgG secretion by spleen cell, incubation day 4 [2, 5]	IgG secretion by spleen cell, incubation day 5 [2, 5]	Dose with significantly augmented IFNγ secretion by ConA-stimulated splenic T cells [3]	IFN-γ secretion by spleen cell ([3]; oral 5 mg/kg/day for four days)	IFN-γ secretion by spleen cell [3, 4]	IFN-γ secretion by spleen cell [3, 5]	Effect on IgG secretion by spleen cells (in words) ([2]; oral)	Dose with significantly augmented IFNγ secretion by ConA-stimulated splenic T cells ([3]; listed as PCM-K3)
C=C(CCC(C(=O)O)C1C(O)CC2(C)C3=CCC4C(C)(CCC(O)C4(C)C)C3=CCC12C)C(C)C (stereo not drawn) [K4]	3.75 ± 0.18 mg/mL	4.33 ± 0.29 mg/mL	4.18 ± 0.25 mg/mL	12.55 ± 3.08	12.99 ± 0.86	18.29 ± 0.92	6.54 ± 1.43	15.15 ± 5.16	22.59 ± 5.35	21.23 ± 3.19	19.11 ± 4.23	22.56 ± 3.84	20 mg/kg/day	240.45 ± 107.83 pg/mL	252.26 ± 103.76 pg/mL	292.00 ± 77.77 pg/mL	–	–
C=C(CC[C@@H](C(=O)O)[C@H]1[C@H](O)C[C@@]2(C)C3=CC[C@H]4C(C)(C)C(=O)CC[C@]4(C)C3=CC[C@]12C)C(C)C [K3]	1.32 ± 0.09 mg/mL	1.28 ± 0.13 mg/mL	1.14 ± 0.11 mg/mL	3.85 ± 0.73	3.43 ± 0.40	4.46 ± 0.95	3.18 ± 0.55	3.16 ± 0.62	3.48 ± 0.43	6.12 ± 0.70	7.10 ± 1.39	8.56 ± 1.34	–	917.07 ± 130.41 pg/mL	449.74 ± 100.67 pg/mL	176.20 ± 45.96 pg/mL	significantly suppressed	5 mg/kg/day and 10 mg/kg/day
